# Assay results published in patent US5360796A, “Imidazo[1,2-a]pyridinylalkyl phosphonic acid compounds for treatment of neurotoxic injury” (G. D. Searle & Co., priority 1991, dated 1994).
# Tests used:
# AMPA = assay: [3H]AMPA (QUIS) binding assay; set-up: species or system rat; conditions: 10 nM [3H]AMPA, 100 mM KSCN, synaptic plasma membranes, pH 7.4, 0-4° C., 10 min; read-out: NMDA Receptor Binding Data, Ki IC50 Binding AMPA
# Description: Synaptic plasma membranes (SPM) were prepared as previously described [Monahah, J. B. and Michel, J., "Identification and Characterization of an N-methyl-D-aspartate-specific L[^3 H]glutamate Recognition Site in Synaptic Plasma Membranes, J. Neurochem., 48, 1699-1708 (1987)]. The SPM were stored at a concentration of 10-15 mg/ml in 0.32M sucrose, 0.5 mM EDTA, 1 mM MgSO4, 5 mM Tris/SO4, pH 7.4, under liquid nitrogen. The identity and purity of the subcellular fractions were confirmed by both electron microscopy and marker enzymes. Protein concentrations were determined by using a modification of the method of Lowry [Ohnishi, S. T. and Barr, J. K., "A Simplified Method of Quantitating Proteins using the Biuret and Phenol Reagents", Anal. Biochem., 86, 193-197 (1978)]. The SPM were treated identically for the [^3 H]AMPA (QUIS), [^3 H]kainate and sodium-dependent L-[^3 H]-glumatate binding assays. The SPM were thawed at room temperature, diluted twenty-fold with 50mM Tris/acetate, pH 7.4, incubated at 37° C. for 30 minutes, and centrifuged at 100,000 g for 15 minutes. The dilution, incubation, and centrifugation was repeated a total of three times. Prior to use in the NMDA-specific L-[^3 H]-glutamate binding assay the SPM were thawed, diluted twenty fold with 50 mM Tris/acetate, pH 7.4 containing 0.04% (v/v) Triton X-100, incubated for 30 minutes at 37° C. and centrifuged as described above. The Triton X-100 treated membranes were washed with 50 mM Tris/acetate, pH 7.4 and centrifuged at 100,000 g for 15 minutes a total of four times. […] The basic procedure for the receptor subclass binding assays was similar. This general method involved adding the radioligand (12.5 nM L-[^3 H] glutamate; 0.5 nM [^3 H]kainate or 10 nM [^3 H]AMPA) to the appropriate concentration of the test compound and initiating the assay by the addition of ice cold synaptic plasma membranes (0.2-0.45 mg). The binding assays were performed in 1.5 mL centrifuge tubes with the total volume adjusted to 1.0 mL. Additions of test compounds were made in 50 mM Tris/acetate, pH 7.4 and incubations were carried out at 0°-4° C. The incubation time for the NMDA and the AMPA binding assays was 10 minutes, for the kainate binding assay 60 minutes and for the sodium-dependent glutamate binding assay 15 minutes. The AMPA binding assay contained 100 mM KSCN and the sodium-dependent glutamate binding assay contained 150 mM sodium acetate in addition to the previously described reagents. To terminate the incubation, the samples were centrifuged for 15 minutes at 12,000 g and 4° C. in a Beckman Microfuge 12. The supernatant was aspirated and the pelleted membranes dissolved in Beckman BTS-450 tissue solubilizer for a minimum of 6 hours at room temperature. Beckman MP scintillation cocktail containing 7 mL/1 acetic acid was then added and the samples counted on a Beckman LS 5800 or 3801 liquid scintillation counter with automatic corrections for quenching and counting efficiency. Nonspecific binding was defined as the residual binding in the presence of either excess L-glutamate (0.1-0.4 mM), kainate (0.01 mM), or NMDA (0.5 mM), and was 15-25% of the total binding in the NMDA binding assay, 19-27% in the AMPA binding assay, 20-30% in the kainate binding assay and 10-15% in the sodium-dependent binding assay. Radioligand binding to the synaptic plasma membranes was analyzed using Scatchard and Hill transformations and the Ki values of the compounds determined using logit-log transformations. Calculations and regression analysis were performed using templates developed for Lotus 1, 2, 3 as previously described [Pullan, L. M. "Automated Radioligand Receptor Binding Analysis with Templates for Lotus", Computer Appln. Biosci., 3, 131 (1987)]. Binding results are reported in Table I for example compounds of the invention.
# [1] = system: CA1 region of the hippocampus; assay: Forebrain Ischemia Assay; format: in vivo, Mongolian gerbil; conditions: for # of Neurons/Field: 7 days after 4-5 min carotid occlusion
# Description: This assay was used to determine the extent of protection afforded by compound of the invention to neural brain cells subjected to ischemic conditions. Male Mongolian gerbils, 50-70 gm, were used as subjects. Compound No. 7 (30 mg/kg) was injected j.p. 30 minutes prior to carotid occlusion into 6 gerbils […]. In preparation for surgical procedures, the animals were lightly anesthetized with methoxyflurane and placed upside down on a heated pad with their snout within a nosecone. A 70:30 mixture of nitrous oxide and oxygen containing 0.5% halothane was circulated through the nosecone to provide continuous anesthesia throughout the surgical procedure. A midline incision was made in the neck and the carotid arteries were exposed. A length of suture thread was placed under each carotid. The thread was then tightened around each carotid and pressure applied to the thread to insure flow was occluded. Flow was occluded for 4-5 minutes and then the thread was removed. The carotids were visually inspected to confirm that reflow had occurred. The wound was then closed with autoclips and the gerbils allowed to recover. Following surgery, the gerbils were kept alive for 7 days. They were anesthetized with 100 mg/kg sodium pentobarbital and perfused transcardially with saline (with heparin) followed by buffered formalin. The brain was removed, trimmed and prepared for histological processing. Sections (10 microns) were stained with thionin. […] Quantification of the resulting lesion is made by counting the pyramidal cell somata in a 0.5 mm length of CAl of the hippocampus on the section corresponding to P 1.7 mm in the gerbil brain atlas.
# Normal cell count in this region of the hippocampus in unoperated gerbils is 146±2. The effects of compound of Ex. #7 were assessed by comparing the number of neural cells found in the hippocampus of subjects treated with Ex. #7 compound with the cell number found in the appropriate control groups. […]
smiles,measurement,setting,value
"O=C(O)c1cn2c(CP(=O)(O)O)cccc2n1 [Example 7, 5-(phosphonomethyl)imidazo[1,2-a]pyridine-2-carboxylic acid]",Ki,AMPA,> 300 µM
same,# of Neurons/Field,"[1]; 300 mg/kg, control 32.8, P < 0.05",53.0
same,# of Neurons/Field,"[1]; 500 mg/kg, control 17.0, p < 0.0001",112.6
same,cell loss,"[1]; vs control, Mann-Whitney U test",significantly reduced
